From US10344017B2, “Pyrrolcarboxamide derivatives for the inhibition of ERK5” (CANCER RESEARCH TECHNOLOGY LIMITED, priority 2014, dated 2019)
pIC50: −log10 of the molar value.

Target: T1, ERK5 (Homo sapiens, UniProt Q13164)
T1 construct: made in house
Assay: ERK5 IMAP assay (fluorescence polarisation)
Type: biochemical
Settings: average (e.g. geometric mean) where more than one data point; read-out: ERK5 IC50
Description: The assay buffer was prepared using 0.01% Tween®-20 5× stock, supplied as part of IMAP™ FP Progressive Binding System Kit (Molecular Devices R7436) and diluted to 1× using miliQ H2O. 1 μL of a 1M DTT stock was added for every 1 mL of 1× assay buffer to give a final concentration of 1 mM DTT.
ERK5 was expressed and purified at CRT-DL by Leon Pang and Sue Young. Aliquots were stored at −80° C. The ERK5 working solution was used at a […] final dilution in assay buffer. […] For 1 plate, […] of ERK5 stock was added to 2262 μL of 1× assay buffer.
To prepare the IMAP™ binding solution for one plate 20.5 μL of IMAP™ binding reagent stock, 1476 μL of 1× binding buffer A (60%), and 984 μL of binding buffer B (40%) (IMAP™ FP Progressive screening express kit (Molecular Devices R8127) was added to 9819.5 μL of milliQ H2O.
1 μL of inhibitor (in 60:40 H2O/DMSO) or 60:40 H2O/DMSO (for controls and blanks) were dry-spotted into the relevant wells of a 384-well assay plate using the MATRIX PlateMate® Plus. 5 μL of ERK5 working solution was added to test and control wells, and 5 μL of 1× assay buffer added to blanks; 4 μL of ATP/substrate working solution was added to all wells using a Matrix multichannel pipette. The plate was sealed using DMSO resistant clear seal and incubated for 2 h at 37° C. 1 μL of the kinase reaction mixture from the first plate was dry spotted into a second 384-well assay plate using the MATRIX PlateMate® Plus. 9 μL of assay buffer was added, followed by 30 μL of IMAP™ binding solution using a multichannel pipette. The plate was incubated at RT in darkness for 2 h. The assay plate was then read on an Analyst HT plate reader (Molecular Devices) using the settings described below: […]

T1 sequence (Q13164 whole entry): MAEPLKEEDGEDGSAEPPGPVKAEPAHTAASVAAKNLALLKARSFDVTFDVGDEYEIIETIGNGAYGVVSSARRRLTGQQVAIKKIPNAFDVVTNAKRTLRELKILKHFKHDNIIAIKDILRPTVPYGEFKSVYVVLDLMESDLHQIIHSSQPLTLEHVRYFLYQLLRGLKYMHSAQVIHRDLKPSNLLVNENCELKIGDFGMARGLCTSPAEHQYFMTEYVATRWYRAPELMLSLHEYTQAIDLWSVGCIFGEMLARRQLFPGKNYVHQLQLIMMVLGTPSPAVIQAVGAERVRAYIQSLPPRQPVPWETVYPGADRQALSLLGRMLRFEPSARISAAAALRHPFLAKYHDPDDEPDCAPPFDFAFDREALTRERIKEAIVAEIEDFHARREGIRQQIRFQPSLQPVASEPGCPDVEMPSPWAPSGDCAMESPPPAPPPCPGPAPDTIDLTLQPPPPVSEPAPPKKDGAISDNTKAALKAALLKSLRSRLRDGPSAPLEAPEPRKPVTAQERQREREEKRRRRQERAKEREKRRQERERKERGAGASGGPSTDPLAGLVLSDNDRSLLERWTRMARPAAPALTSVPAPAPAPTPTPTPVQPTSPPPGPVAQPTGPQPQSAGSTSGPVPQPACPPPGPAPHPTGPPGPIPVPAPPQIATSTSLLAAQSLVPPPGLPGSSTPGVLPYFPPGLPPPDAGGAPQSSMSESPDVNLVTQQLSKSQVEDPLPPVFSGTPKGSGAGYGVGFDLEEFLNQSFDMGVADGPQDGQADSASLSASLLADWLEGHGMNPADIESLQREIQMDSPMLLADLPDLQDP

O=C(Nc1cnn(C2CCOCC2)c1)c1cc(C(=O)c2c(Cl)ccc(Cl)c2F)c[nH]1 [Example 237, 4-(3,6-Dichloro-2-fluorobenzoyl)-N-(1-(tetrahydro-2H-pyran-4-yl)-1H-pyrazol-4-yl)-1H-pyrrole-2-carboxamide]
pIC50: 6.83

CN1CCC(NC(=O)c2cc(C(=O)c3c(Cl)ccc(F)c3F)c[nH]2)CC1 [Example 223, 4-(6-Chloro-2,3-difluorobenzoyl)-N-(1-methylpiperidin-4-yl)-1H-pyrrole-2-carboxamide]
pIC50: 6.70

O=C(Nc1ccc(CO)nc1)c1cc(C(=O)c2c(F)cccc2Cl)c[nH]1 [Example 119, 4-(2-chloro-6-fluorobenzoyl)-N-(6-(hydroxymethyl)pyridin-3-yl)-1H-pyrrole-2-carboxamide]
pIC50: 6.28

CN1CCC(NC(=O)c2cc(C(=O)c3c(F)cccc3Br)c[nH]2)CC1 [Example 195, 4-(2-Bromo-6-fluorobenzoyl)-N-(1-methylpiperidin-4-yl)-1H-pyrrole-2-carboxamide]
pIC50: 6.54

O=Cc1ccc(F)c(C(=O)c2c[nH]c(C(=O)Nc3cccnc3)c2)c1F [Example 265, 4-(2,6-difluoro-3-formylbenzoyl)-N-(pyridin-3-yl)-1H-pyrrole-2-carboxamide]
pIC50: 5.13

CN1CCC(NC(=O)c2cc(C(=O)c3c(Cl)ccc(Cl)c3F)c[nH]2)CC1 [Example 174, 4-(3,6-dichloro-2-fluorobenzoyl)-N-(1-methylpiperidin-4-yl)-1H-pyrrole-2-carboxamide]
pIC50: 6.94

O=C(Nc1ccnc(Cl)n1)c1cc(C(=O)c2c(F)cccc2Cl)c[nH]1 [Example 140, 4-(2-Chloro-6-fluorobenzoyl)-N-(2-chloropyrimidin-4-yl)-1H-pyrrole-2-carboxamide]
pIC50: 5.36

COc1ccc(Cl)c(C(=O)c2c[nH]c(C(=O)Nc3cnn(Cc4ccncc4)c3)c2)c1F [Example 67]
pIC50: 7.79

O=C(Nc1ccc(OCCO)nc1)c1cc(C(=O)c2c(Cl)ccc(Cl)c2F)c[nH]1 [Example 281, 4-(3,6-Dichloro-2-fluorobenzoyl)-N-(6-(2-hydroxyethoxy)pyridin-3-yl)-1H-pyrrole-2-carboxamide]
pIC50: 6.41

Cc1ccc(F)c(C(=O)c2c[nH]c(C(=O)Nc3cccnc3)c2)c1Cl [Example 175, 4-(2-Chloro-6-fluoro-3-methylbenzoyl)-N-(pyridin-3-yl)-1H-pyrrole-2-carboxamide]
pIC50: 6.19

Cc1cc(NC(=O)c2cc(C(=O)c3c(F)cccc3Br)c[nH]2)cc(C)n1 [Example 135, 4-(2-Bromo-6-fluorobenzoyl)-N-(2,6-dimethylpyridin-4-yl)-1H-pyrrole-2-carboxamide]
pIC50: 6.18

Cn1cc(NC(=O)c2cc(C(=O)c3c(Cl)ccc(OC4COC4)c3F)c[nH]2)cn1 [Example 273, 4-(6-Chloro-2-fluoro-3-(oxetan-3-yloxy)benzoyl)-N-(1-methyl-1H-pyrazol-4-yl)-1H-pyrrole-2-carboxamide]
pIC50: 7.23

CS(=O)(=O)N1CCC(NC(=O)c2cc(C(=O)c3c(F)cccc3Cl)c[nH]2)CC1 [Example 8, 4-(2-Chloro-6-fluorobenzoyl)-N-(1-(methylsulfonyl)piperidin-4-yl)-1H-pyrrole-2-carboxamide]
pIC50: 6.53

O=C(Nc1cccnc1N1CCCC1)c1cc(C(=O)c2c(F)cccc2Cl)c[nH]1 [Example 80, 4-(2-Chloro-6-fluorobenzoyl)-N-(2-(pyrrolidin-1-yl)pyridin-3-yl)-1H-pyrrole-2-carboxamide]
pIC50: 5.10

Cc1ccncc1NC(=O)c1cc(C(=O)c2c(Cl)ccc(Cl)c2F)c[nH]1 [Example 93, 4-(3,6-Dichloro-2-fluorobenzoyl)-N-(4-methylpyridin-3-yl)-1H-pyrrole-2-carboxamide]
pIC50: 6.32

O=C(Nc1cc[nH]c(=O)n1)c1cc(C(=O)c2c(F)cccc2Cl)c[nH]1 [Example 146, 4-(2-Chloro-6-fluorobenzoyl)-N-(2-oxo-1,2-dihydropyrimidin-4-yl)-1H-pyrrole-2-carboxamide]
pIC50: 5.53

CC(C)(C)OC(=O)N1CCC(NC(=O)c2cc(C(=O)c3c(F)cccc3Cl)c[nH]2)CC1 [Example 193, tert-Butyl 4-(4-(2-chloro-6-fluorobenzoyl)-1H-pyrrole-2-carboxamido)piperidine-1-carboxylate]
pIC50: 5.97

COc1ccc(F)c(C(=O)c2c[nH]c(C(=O)Nc3cccnc3)c2)c1Cl [Example 73, 4-(2-chloro-6-fluoro-3-methoxybenzoyl)-N-(pyridin-3-yl)-1H-pyrrole-2-carboxamide]
pIC50: 6.59

O=C(Nc1cnc(N2CCCC2)nc1)c1cc(C(=O)c2c(F)cccc2Cl)c[nH]1 [Example 14, 4-(2-Chloro-6-fluorobenzoyl)-N-(2-(pyrrolidin-1-yl)pyrimidin-5-yl)-1H-pyrrole-2-carboxamide]
pIC50: 5.39

Cc1ncccc1NC(=O)c1cc(C(=O)c2c(F)cccc2Br)c[nH]1 [Example 149, 4-(2-Bromo-6-fluorobenzoyl)-N-(2-methylpyridin-3-yl)-1H-pyrrole-2-carboxamide]
pIC50: 5.62

O=C(Nc1cncnc1)c1cc(C(=O)c2c(F)cccc2Br)c[nH]1 [Example 145, 4-(2-Bromo-6-fluorobenzoyl)-N-(pyrimidin-5-yl)-1H-pyrrole-2-carboxamide]
pIC50: 6.18

Cc1ccc(NC(=O)c2cc(C(=O)c3c(F)cccc3Cl)c[nH]2)cn1 [Example 150, 4-(2-Chloro-6-fluorobenzoyl)-N-(6-methylpyridin-3-yl)-1H-pyrrole-2-carboxamide]
pIC50: 5.99

O=C(Nc1ccncn1)c1cc(C(=O)c2cccc(Cl)c2Cl)c[nH]1 [Example 131, 4-(2,3-Dichlorobenzoyl)-N-(pyrimidin-4-yl)-1H-pyrrole-2-carboxamide]
pIC50: 5.58

CCc1ccc(F)c(C(=O)c2c[nH]c(C(=O)Nc3cncnc3)c2)c1F [Example 163, 4-(3-Ethyl-2,6-difluorobenzoyl)-N-(pyrimidin-5-yl)-1H-pyrrole-2-carboxamide]
pIC50: 5.46

Cc1ccc(Cl)c(C(=O)c2c[nH]c(C(=O)NC3CCN(C)CC3)c2)c1F [Example 180, 4-(6-Chloro-2-fluoro-3-methylbenzoyl)-N-(1-methylpiperidin-4-yl)-1H-pyrrole-2-carboxamide]
pIC50: 6.31

COc1ccc(Cl)c(C(=O)c2c[nH]c(C(=O)Nc3cncnc3)c2)c1F [Example 74, 4-(6-chloro-2-fluoro-3-methoxybenzoyl)-N-(pyrimidin-5-yl)-1H-pyrrole-2-carboxamide]
pIC50: 6.69

Cc1ccc(F)c(C(=O)c2c[nH]c(C(=O)NC3CCN(C)CC3)c2)c1 [Example 234, 4-(2-Fluoro-5-methylbenzoyl)-N-(1-methylpiperidin-4-yl)-1H-pyrrole-2-carboxamide]
pIC50: 5.36

O=C(Nc1cccnc1)c1cc(C(=O)c2c(F)ccc(F)c2F)c[nH]1 [Example 206, N-(Pyridin-3-yl)-4-(2,3,6-trifluorobenzoyl)-1H-pyrrole-2-carboxamide]
pIC50: 6.40

O=C(NC1CCNCC1)c1cc(C(=O)c2cc(Cl)ccc2F)c[nH]1 [Example 230, 4-(5-Chloro-2-fluorobenzoyl)-N-(piperidin-4-yl)-1H-pyrrole-2-carboxamide]
pIC50: 5.78

O=C(Nc1cncnc1)c1cc(C(=O)c2c(F)ccc(F)c2F)c[nH]1 [Example 207, N-(Pyrimidin-5-yl)-4-(2,3,6-trifluorobenzoyl)-1H-pyrrole-2-carboxamide]
pIC50: 5.97

O=C(Nc1cccnc1)c1cc(C(=O)c2c(Cl)ccc(O)c2F)c[nH]1 [Example 254, 4-(6-Chloro-2-fluoro-3-hydroxybenzoyl)-N-(pyridin-3-yl)-1H-pyrrole-2-carboxamide]
pIC50: 5.92

CCc1ccncc1NC(=O)c1cc(C(=O)c2c(Cl)ccc(Cl)c2F)c[nH]1 [Example 94, 4-(3,6-Dichloro-2-fluorobenzoyl)-N-(4-ethylpyridin-3-yl)-1H-pyrrole-2-carboxamide]
pIC50: 5.78

Cc1cccc(F)c1C(=O)c1c[nH]c(C(=O)Nc2cccnc2)c1 [Example 186, 4-(2-Fluoro-6-methylbenzoyl)-N-(pyridin-3-yl)-1H-pyrrole-2-carboxamide]
pIC50: 5.59

O=C(Nc1cccnc1)c1cc(C(=O)c2c(F)ccc(Cl)c2F)c[nH]1 [Example 210, 4-(3-Chloro-2,6-difluorobenzoyl)-N-(pyridin-3-yl)-1H-pyrrole-2-carboxamide]
pIC50: 6.54

CCOc1ccncc1NC(=O)c1cc(C(=O)c2c(F)cccc2Cl)c[nH]1 [Example 91, 4-(2-Chloro-6-fluorobenzoyl)-N-(4-ethoxypyridin-3-yl)-1H-pyrrole-2-carboxamide]
pIC50: 5.64

CCc1ccc(F)c(C(=O)c2c[nH]c(C(=O)NC3CCN(C)CC3)c2)c1F [Example 164, 4-(3-Ethyl-2,6-difluorobenzoyl)-N-(1-methylpiperidin-4-yl)-1H-pyrrole-2-carboxamide]
pIC50: 6.21
